# Laboratory results from patent US20250250285A1, “IRON-ACTIVABLE NITROGEN-CONTAINING DERIVATIVES OF SALINOMYCIN AND NARASIN, SYNTHESIS AND USE FOR THE TREATMENT OF CANCERS” (Centre National de la Recherche Scientifique, priority 2021, published 2025).
# Where two headings read alike, the source gives them in different places.
# What was measured:
# PDAC053T = assay: Cell viability (CellTiter-Blue), IC50 on PDAC053T; type: cell-based, human; conditions: for IC50: PDAC053T, 72 h treatment, CellTiter-Blue
# Procedure: PDAC053T cells were a generous gift from Juan Iovanna (INSERM) and cultured in serum-free ductal medium as published before (Gastroenterology. 2004, 127(1):250-260). Liproxstatin-1 (Sigma Aldrich, Cat #SML1414) was used at a concentration of 1 μM.
# PDAC085T = assay: Cell viability (CellTiter-Blue), IC50 on PDAC085T; type: cell-based, human; conditions: 72 h treatment
# Procedure: (§2) Cell viability was evaluated by plating 4000 cells/well in 96-well plates using CellTiter-Blue viability assay according to the manufacturer's protocol. […] CellTiter-Blue reagent (Promega, G8081) was added after 72 h treatment and cells were incubated for 2 h before recording fluorescence intensities (ex. 560 nm; em. 590 nm) using a Perkin Elmer Wallac 1420 Victor2 Microplate Reader.
# PDAC090T = assay: Cell viability (CellTiter-Blue), IC50 on PDAC090T; type: cell-based, human; conditions: 72 h treatment
# Procedure: as §2
# PDAC211T = assay: Cell viability (CellTiter-Blue), IC50 on PDAC211T; type: cell-based, human; conditions: 72 h treatment
# Procedure: as §2
# [1] = tested on: HMLER CD44^low/CD24^high cells; assay: IC50 on control epithelial HMLER CD44low/CD24high cells; type: cell-based, human
# Description: (§1) The inventors also evaluated the biological activity of prodrugs and parent structures against transformed human mammary epithelial HMLER CD44^high/CD24^low cells, a model of human breast cancer stem cells stable in the mesenchymal state, and against control epithelial HMLER CD44^low/CD24^high cells.
# MCF10A = assay: IC50 on nontumorigenic epithelial breast cell MCF10A; conditions: for toxicity toward nontumorigenic epithelial cells compared with respective parent compound: in words, versus parent compound
# Procedure: as §2
# In addition to the above distinct patient-derived pancreatic ductal adenocarcinoma (PDAC) cell lines, the compounds were also evaluated against nontumorigenic epithelial breast cell MCF10A.
# [2] = tested on: HMLER CD44^high/CD24^low cells; assay: IC50 on HMLER CD44high/CD24low cells (breast cancer stem cell model); type: cell-based, human; conditions: mesenchymal state
# Description: as §1
# PDAC030T = assay: Cell viability (CellTiter-Blue), IC50 on PDAC030T; type: cell-based, human; conditions: 72 h treatment
# Procedure: as §2
# [3] = MCF10A nontumorigenic epithelial breast cell
Compound,IC50 (PDAC053T) [nM],IC50 (PDAC085T) [nM],IC50 (PDAC090T) [nM],IC50 (PDAC211T) [nM],IC50 [1] [nM],IC50 (MCF10A; [3]) [nM],IC50 [2] [nM],IC50 (PDAC030T) [nM],IC50 (PDAC053T; Homo sapiens) [nM],IC50 (PDAC085T; Homo sapiens) [nM],IC50 (PDAC090T; Homo sapiens) [nM],IC50 (PDAC211T; Homo sapiens) [nM],IC50 ([1]; Homo sapiens) [nM],"IC50 (MCF10A; Homo sapiens, MCF-10A) [nM]",toxicity toward nontumorigenic epithelial cells compared with respective parent compound (MCF10A),IC50 ([2]; Homo sapiens) [nM],IC50 (PDAC030T; Homo sapiens) [nM],"potency compared with Nar-AM23 (PDAC053T; PDAC053T cells, in words)"
C20-epi-ironomycin [Epi-AM5],2170,670,4160,1480,11800,1340,1800,2870,–,–,–,–,–,–,–,–,–,–
"C#CCN[C@@H]1C=C[C@]2(O[C@H]([C@@H](CC)C(=O)[C@@H](C)[C@@H](O)[C@H](C)C3O[C@@H](C(CC)C(=O)OC)CC[C@@H]3C)[C@@H](C)C[C@H]2C)O[C@@]12CC[C@@](C)([C@H]1CC[C@](O)(CC)[C@H](C)O1)O2 (some centres unmarked) [AM9, C1 Methyl Ester of Ironomycin, reference compound]",7460,8880,5890,5010,15200,12200,13200,5670,–,–,–,–,–,–,–,–,–,–
C20-cyclopropyloaminonarasin [Nar-AM23],200,40,320,50,450,100,10,60,–,–,–,–,–,–,–,–,–,–
"C20-cyclopropylaminosalinomycin [AM23, reference compound]",830,360,210,40,500,300,10,110,–,–,–,–,–,–,–,–,–,–
"C#CCN[C@@H]1C=C[C@]2(O[C@H]([C@@H](CC)C(=O)[C@@H](C)[C@@H](O)[C@H](C)[C@@H]3O[C@@H]([C@@H](CC)C(=O)OC4O[C@@H]5O[C@]6(C)CC[C@H]7[C@H](C)CC[C@@H]([C@H]4C)[C@@]57OO6)CC[C@@H]3C)[C@@H](C)C[C@H]2C)O[C@@]12CC[C@@](C)([C@H]1CC[C@](O)(CC)[C@H](C)O1)O2 (some centres unmarked) [MA-I-062, Ironomycin-dihydroartemisinin prodrug]",–,–,–,–,–,–,–,–,1790,1170,2190,100,480,2030,less toxic,160,500,–
CC[C@@H](C(=O)[C@@H](C)[C@@H](O)[C@H](C)[C@@H]1O[C@@H]([C@@H](CC)C(=O)O)CC[C@@H]1C)[C@H]1O[C@]2(C=C[C@@H](O)[C@]3(CC[C@@](C)([C@H]4CC[C@](O)(CC)[C@H](C)O4)O3)O2)[C@H](C)C[C@@H]1C [Salinomycin],–,–,–,–,–,–,–,–,4500,1560,2660,1290,4360,1130,–,1380,1610,–
"CC[C@@H](C(=O)[C@@H](C)[C@@H](O)[C@H](C)[C@@H]1O[C@@H]([C@@H](CC)C(=O)OC2O[C@@H]3O[C@]4(C)CC[C@H]5[C@H](C)CC[C@@H]([C@H]2C)[C@@]35OO4)CC[C@@H]1C)[C@H]1O[C@]2(C=C[C@@H](O)[C@]3(CC[C@@](C)([C@H]4CC[C@](O)(CC)[C@H](C)O4)O3)O2)[C@H](C)C[C@@H]1C (some centres unmarked) [MA-I-023, Salinomycin-dihydroartemisinin prodrug]",–,–,–,–,–,–,–,–,3880,3320,4530,3130,820,–,–,480,750,–
C#CCN[C@H]1C=C[C@]2(O[C@H]([C@@H](CC)C(=O)[C@@H](C)[C@@H](O)[C@H](C)[C@@H]3O[C@@H]([C@@H](CC)C(=O)OC4O[C@@H]5O[C@]6(C)CC[C@H]7[C@H](C)CC[C@@H]([C@H]4C)[C@@]57OO6)CC[C@@H]3C)[C@@H](C)C[C@H]2C)O[C@@]12CC[C@@](C)([C@H]1CC[C@](O)(CC)[C@H](C)O1)O2 (some centres unmarked) [MA-I-096],–,–,–,–,–,–,–,–,520,360,690,330,360,1370,–,200,90,–
"CC[C@@H](C(=O)OC1O[C@@H]2O[C@]3(C)CC[C@H]4[C@H](C)CC[C@@H]([C@H]1C)[C@@]24OO3)[C@@H]1O[C@@H]([C@@H](C)[C@H](O)[C@H](C)C(=O)[C@H](CC)[C@H]2O[C@]3(C=C[C@@H](NC4CC4)[C@]4(CC[C@@](C)([C@H]5CC[C@](O)(CC)[C@H](C)O5)O4)O3)[C@H](C)C[C@@H]2C)[C@@H](C)C[C@@H]1C (some centres unmarked) [MA-I-095, C20-cyclopropylaminonarasin-dihydroartemisinin prodrug]",–,–,–,–,–,–,–,–,90,70,180,490,1960,5240,less toxic,760,120,more potent
C20-propargyloaminonarasin [Nar-AM5],880,120,800,220,1080,220,110,220,–,–,–,–,–,–,–,–,–,–
"C#CCN[C@@H]1C=C[C@]2(O[C@H]([C@@H](CC)C(=O)[C@@H](C)[C@@H](O)[C@H](C)[C@@H]3O[C@@H]([C@@H](CC)C(=O)O)CC[C@@H]3C)[C@@H](C)C[C@H]2C)O[C@@]12CC[C@@](C)([C@H]1CC[C@](O)(CC)[C@H](C)O1)O2 [Ironomycin, reference compound]",2600,720,630,180,1790,120,160,2670,–,–,–,–,–,–,–,–,–,–
"C[C@H]1[C@@H](O)O[C@@H]2O[C@@]3(C)CC[C@H]4[C@H](C)CC[C@@H]1[C@@]24OO3 [DHA, dihydroartemisinin, reference compound]",–,–,–,–,–,–,–,–,> 50000,21600,35400,10300,14200,5450,–,2850,8080,–
"CC[C@@H](C(=O)OC1O[C@@H]2O[C@]3(C)CC[C@H]4[C@H](C)CC[C@@H]([C@H]1C)[C@@]24OO3)[C@@H]1O[C@@H]([C@@H](C)[C@H](O)[C@H](C)C(=O)[C@H](CC)[C@H]2O[C@]3(C=C[C@@H](O)[C@]4(CC[C@@](C)([C@H]5CC[C@](O)(CC)[C@H](C)O5)O4)O3)[C@H](C)C[C@@H]2C)[C@@H](C)C[C@@H]1C (some centres unmarked) [MA-I-081, narasin-dihydroartemisinin prodrug]",–,–,–,–,–,–,–,–,540,440,740,450,500,–,–,190,90,–
CC[C@@H](C(=O)O)[C@@H]1O[C@@H]([C@@H](C)[C@H](O)[C@H](C)C(=O)[C@H](CC)[C@H]2O[C@]3(C=C[C@@H](O)[C@]4(CC[C@@](C)([C@H]5CC[C@](O)(CC)[C@H](C)O5)O4)O3)[C@H](C)C[C@@H]2C)[C@@H](C)C[C@@H]1C [Narasin],–,–,–,–,–,–,–,–,2000,500,1160,730,2960,790,–,450,1180,–
